The results in this text go back to patent US12427151B2, “Compositions and method of treating cancer” (The Regents of the University of California, priority 2017, dated 2025).

In the series the test system is L5178Y tk+/- mouse lymphoma cells. Nature of the series: Mutagenic activity at the thymidine kinase (tk) locus. Type of series: cell-based. The conditions noted are these: compared to vehicle. Here is the method:
Because some nucleobase analogs exert mutagenic activities due to their misrecognition of wrong bases, mutagenic activity of 6-HAP was determined by detecting mutagenic events at the thymidine kinase (tk) locus of L5178Y tk^+/− mouse lymphoma cells.

For the compound `COS(C)(=O)=O` [methyl methanesulfonate, reference compound], the “mutagenic activity, mutation frequency at tk locus” value was “did induce a high mutation frequency”.
